Among the data in patent publication US10287269B2, “Pyrazolyl pyrimidinone compounds as PDE2 inhibitors” (Merck Sharp & Dohme Corp., priority 2015, dated 2019) are Ki values, retold here.

Read-outs that look alike come from different tables or passages of the source.

A word on the Ki: it is the dissociation constant of the complex between target and ligand, obtained from inhibition or displacement.

In this assay the target is T1, Rhesus PDE2A3 (Macaca mulatta, UniProt B3VTJ2).
T1 construct: made in house; host or cells: AD293 cells, transient transfection, pcDNA3.3-TOPO; lysate supernatant used as enzyme
T1 sequence (B3VTJ2 1-941): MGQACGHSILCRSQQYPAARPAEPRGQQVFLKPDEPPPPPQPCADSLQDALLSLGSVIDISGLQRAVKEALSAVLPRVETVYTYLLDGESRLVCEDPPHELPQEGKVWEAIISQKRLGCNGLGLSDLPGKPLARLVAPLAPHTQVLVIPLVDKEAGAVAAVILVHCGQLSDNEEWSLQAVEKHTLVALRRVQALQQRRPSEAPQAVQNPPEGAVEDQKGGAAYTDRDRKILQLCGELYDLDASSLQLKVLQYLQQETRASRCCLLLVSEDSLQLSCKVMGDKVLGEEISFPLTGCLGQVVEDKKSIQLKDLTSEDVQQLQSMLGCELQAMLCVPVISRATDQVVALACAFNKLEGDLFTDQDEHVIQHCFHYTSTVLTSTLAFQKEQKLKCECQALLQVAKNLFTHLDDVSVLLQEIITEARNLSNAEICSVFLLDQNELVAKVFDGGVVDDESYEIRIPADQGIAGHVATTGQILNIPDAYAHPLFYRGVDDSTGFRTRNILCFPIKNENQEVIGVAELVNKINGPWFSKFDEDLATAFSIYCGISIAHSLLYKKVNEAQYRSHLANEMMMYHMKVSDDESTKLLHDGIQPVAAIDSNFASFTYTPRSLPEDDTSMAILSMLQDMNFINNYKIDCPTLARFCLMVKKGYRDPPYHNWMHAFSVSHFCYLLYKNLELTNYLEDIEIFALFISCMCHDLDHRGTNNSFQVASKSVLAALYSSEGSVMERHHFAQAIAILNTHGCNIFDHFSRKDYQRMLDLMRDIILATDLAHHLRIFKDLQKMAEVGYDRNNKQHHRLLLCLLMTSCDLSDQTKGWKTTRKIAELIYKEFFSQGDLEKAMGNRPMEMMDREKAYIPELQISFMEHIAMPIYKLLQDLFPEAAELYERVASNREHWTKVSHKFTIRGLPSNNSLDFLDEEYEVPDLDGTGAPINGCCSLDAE
Briefly: PDE2 fluorescence polarization (IMAP FP) inhibition assay, rhesus enzyme. Format: biochemical, rhesus macaque. The method in brief: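 Lysate of AD293 cells transiently expressing rhesus PDE2A3, diluted for ~20% substrate conversion, with 50 nM FAM-cAMP and 1 uM cGMP activator in pH 7.2 Tris/MgCl2 buffer, 60 min at room temperature.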
For orientation: Fluorescence polarisation rises when a labelled molecule tumbles more slowly, as on binding a larger partner.

[1] abbreviates: Lab A, read-out: Rhesus PDE2 Ki (nM) Lab A.
The mark [2] stands for this setting: Lab B, read-out: Rhesus PDE2 Ki (nM) Lab B.

Turning to `CC(C)c1nc(-c2cnn(C(C)c3ccc(C(F)(F)F)cc3F)c2)cc(=O)[nH]1` (centres unmarked) [Example 9, 6-(1-(1-(2-Fluoro-4-(trifluoromethyl)phenyl)ethyl)-1H-pyrazol-4-yl)-2-isopropylpyrimidin-4(3H)-one], the inhibition constant Ki runs as follows: under setting [1], 58.8 nM; under setting [2], 30.7 nM.

With `Cc1nc(-n2cc([C@]3(c4ccc(C(F)(F)F)cc4)CCCO3)cn2)cc(=O)[nH]1` (single isomer, unassigned) [Example 21], the Ki under setting [2] was 213 nM. Still for that read-out and setting: in the case of `COc1ccc(Cc2nc(-c3cnn(C(C)c4ccc(C(F)(F)F)cc4F)c3)cc(=O)[nH]2)cc1OC` (single isomer, unassigned) [Example 66, (R)- or (S)-2-(3,4-dimethoxybenzyl)-6-(1-(1-(2-fluoro-4-(trifluoromethyl)phenyl)ethyl)-1H-pyrazol-4-yl)pyrimidin-4(3H)-one] it was 0.8 nM. Consider `Cc1nc(-c2cnn(C3(c4ccc(C(F)(F)F)cc4F)CCC3)c2)cc(=O)[nH]1` [Example 37, 6-(1-(1-(2-fluoro-4-(trifluoromethyl)phenyl)cyclobutyl)-1H-pyrazol-4-yl)-2-methylpyrimidin-4(3H)-one], for which the Ki under setting [1] is 13.1 nM. With `Cc1nc(-n2ccc([C@H](C)c3ccc(C(F)(F)F)cc3)n2)cc(=O)[nH]1` (single isomer, unassigned) [Example 6], the Ki under setting [2] was 466 nM. Consider `CCc1ccc(C(C)n2cc(-c3cc(=O)[nH]c(C)n3)cn2)c(F)c1` (single isomer, unassigned) [Example 101, (R)- or (S)-6-(1-(1-(4-ethyl-2-fluorophenyl)ethyl)-1H-pyrazol-4-yl)-2-methylpyrimidin-4(3H)-one], for which the Ki under setting [1] is 25.4 nM. Regarding `Cc1nc(-n2cc(Cc3ccc(OC(F)(F)F)cc3)cn2)cc(=O)[nH]1` [Example 30, 2-Methyl-6-(4-(4-(trifluoromethoxy)benzyl)-1H-pyrazol-1-yl)pyrimidin-4(3H)-one], the Ki under setting [2] amounted to 2940 nM.

As to `Cc1nc(-c2ccn(C(C)c3ccc(C(F)(F)F)cc3)n2)cc(=O)[nH]1` (single isomer, unassigned) [Example 77, (R)- or (S)-2-methyl-6-(1-(1-(4-(trifluoromethyl)phenyl)ethyl)-1H-pyrazol-3-yl)pyrimidin-4(3H)-one], under setting [2], the Ki turned out to be 542 nM. Regarding `COc1cccc(Cc2nc(-c3cnn(C(C)c4ccc(C(F)(F)F)cc4F)c3)cc(=O)[nH]2)c1` (single isomer, unassigned) [Example 141, (S)- or (R)-6-(1-(1-(2-fluoro-4-(trifluoromethyl)phenyl)ethyl)-1H-pyrazol-4-yl)-2-(3-methoxybenzyl)pyrimidin-4(3H)-one], the Ki under setting [1] was determined as 25.6 nM and the Ki under setting [2] is 8.7 nM.

For the molecule `Cc1nc(-c2cn(C(C)c3ccc(C(F)(F)F)cc3)nc2C)cc(=O)[nH]1` (centres unmarked) [Example 80, 2-methyl-6-(3-methyl-1-(1-(4-(trifluoromethyl)phenyl)ethyl)-1H-pyrazol-4-yl)pyrimidin-4(3H)-one], under setting [2], the inhibition constant Ki is 194 nM. Same read-out and setting: in the case of `Cc1nc(-n2cc(Cc3ccc(C(F)(F)F)cc3)cn2)cc(=O)[nH]1` [Example 48, 2-methyl-6-(4-(4-(trifluoromethyl)benzyl)-1H-pyrazol-1-yl)pyrimidin-4(3H)-one] it was 333 nM; in that of `Cc1nc(-n2cc([C@]3(c4ccc(C(F)(F)F)cc4)CCCO3)cn2)cc(=O)[nH]1` (single isomer, unassigned) [Example 22], 41.9 nM. On the same count and under the same terms, as for `CCC(c1ccc(C(F)(F)F)cc1)c1cnn(-c2cc(=O)[nH]c(C)n2)c1` (centres unmarked) [Example 129, 2-methyl-6-(4-(1-(4-(trifluoromethyl)phenyl)propyl)-1H-pyrazol-1-yl)pyrimidin-4(3H)-one], the figure is 184 nM. For the molecule `COc1ccc(Cc2nc(-c3cnn(C(C)c4ccc(S(F)(F)(F)(F)F)cc4)c3)cc(=O)[nH]2)cc1OC` (single isomer, unassigned) [Example 64, (R)- or (S)-2-(3,4-dimethoxybenzyl)-6-(1-(1-(4-(pentafluorosulfanyl)phenyl)ethyl)-1H-pyrazol-4-yl)pyrimidin-4(3H)-one], the Ki by setting is: under setting [1], 7.2 nM; under setting [2], 3.5 nM.
